The record followed here is patent publication US4339442A, “Gynosaponins, their use and a process for preparing the same” (priority 1980, dated 1982).

In general, inhibition refers to the drop in the measured response relative to a control, in per cent.

Common to all, as to type: cell-based, male wister rats
The subject of assay [1] is fat cells. The assay is described as follows: Synthesis of fat from glucose in fat cells. Conditions: 20 μg/ml; for Power for synthesis of neutral fat from glucose: 37° C., half an hour; for Rate of promotion / activation at 20 µg/mL: none = 100; for activation at 20 µg/mL: Rattus norvegicus, 0.5 h, read-out: Rate of promotion. How it is done:
(§1) Fat tissues were separated from the epididymides of male wister rats weighing 150 to 180 g each, and fat cells were obtained therefrom in accordance with the Rodbell's method [M. Rodbell, J. Biol. Chem., 239, 375 (1964)]. A small section was prepared from 4 g of the fat tissue, and placed in 10 ml. of Krebs-Ringer bicarbonate buffer containing 0.4 g of albumin, 10 mg of collagenase and 5 mg of glucose, and having a pH value of 7.4. It was heated at 37° C. for 50 minutes, and subjected to centrifugal separation at 300 rpm, whereby a floating fat cell layer was separated. Added into the fat cell were 10 ml. of the aforesaid buffer (pH 7.4), and the solution was carefully stirred to wash the fat cell, followed by centrifugal separation at 300 rpm for 30 seconds. This procedure was repeated twice, whereby the fat cells were washed perfectly, and these fat cells were used for the tests.
^14 C-glucose having its carbon atoms marked with radioactivity was reacted upon fat cells, and a Geiger count was read to determine the amount of the glucose participating in the fat synthesis and incorporated into the fat cells as a neutral fat, whereby gynosaponins were tested for their effects on the power of the glucose for fat synthesis.
More specifically, the fat cells obtained by treating with collagenase were suspended in KRB, and 0.35 ml. of the resulting solution containing 100 mg of fat cells was placed into a test tube with 0.1 ml. of each saponin solution containing 20 μg of saponin, 0.5 ml. of a 5% albumin solution in KRB, containing 10 mM glucose and having a pH value of 7.4, and 0.05 ml. of a ^14 C-glucose solution which was a 0.5 μCi KRP solution having a pH value of 7.4 and containing 10 mM glucose. They were heated at 37° C. for half an hour, and after 5 ml. of Dole's extract were added and the whole was shaked for five minutes, 3 ml. of heptane and 2 ml. of water were added, and the whole was shaked for five minutes. 3 ml. of a heptane layer were separated, and after an alkaline ethanol solution (0.5 N sodium hydroxide solution, 50 % ethanol solution) was added in the amount of 3 ml., the whole was shaked for five minutes. Then, 1 ml. of an ethanol layer was separated, and 10 ml. of a toluene scintillation solution were added thereinto, followed by determination according to the method of Skipski et al. [Biochem. Biophys. Acta, 106, 386 (1965)].

The test system of assay [2] is fat cells. As to the kind of experiment: Decomposition by adrenalin of the fat in the fat cells. Conditions: adrenalin 1 μg/ml + saponin 20 μg/ml, 37° C., two hours; for inhibition at 20 µg/mL: Rattus norvegicus, 2 h, read-out: Rate of inhibition. As for the experimental part:
A small section was prepared from 4 g of the fat tissue, and placed in 10 ml. of Krebs-Ringer bicarbonate buffer containing 0.4 g of albumin, 10 mg of collagenase and 5 mg of glucose, and having a pH value of 7.4. […] Added into the fat cell were 10 ml. of the aforesaid buffer (pH 7.4), and the solution was carefully stirred to wash the fat cell, followed by centrifugal separation at 300 rpm for 30 seconds. This procedure was repeated twice, whereby the fat cells were washed perfectly, and these fat cells were used for the tests.
The fat cells obtained by treating with collagenase were suspended in Krebs-Ringer phosphate buffer (KRP) having a pH value of 7.4. Placed into a test tube were 0.3 ml. of the solution thus obtained, and containing 100 mg of fat cells, 0.1 ml. of an adrenalin solution containing 1 μg of adrenalin, 0.1 ml. of a saponin solution containing 20 μg of saponin, and 0.5 ml. of a 5% albumin solution in KRP, and having a pH value adjusted to 7.4. […] More specifically, 3 ml. of Dole's extract were placed in the reaction system, and after they were shaked for five minutes, 3 ml. of heptane were dispensed, and 1 ml. of a thymol blue solution was added thereinto. The resulting solution was titrated with a 0.008 N aqueous solution of sodium hydroxide, while it was being stirred with nitrogen, and the amount of the resulting free fatty acid was determined in accordance with a calibration curve.
The rate of inhibition was obtained in accordance with the equation shown at (1) above.

The subject of assay [3] is fat cells. The assay is described as follows: Decomposition of the fat in the fat cell by ACTH. The conditions noted are these: ACTH 1 μg/ml + saponin 20 μg/ml, 37° C., two hours; for inhibition at 20 µg/mL: Rattus norvegicus, 2 h, read-out: Rate of inhibition. How it is done:
as §1
The fat cells obtained by treating with collagenase were suspended in Krebs-Ringer bicarbonate buffer (KRB) having a pH value of 7.4. Placed into a test tube were 0.3 ml. of the solution thus obtained (containing 100 mg of fat cells), 0.1 ml. of ACTH solution containing 1 μg of ACTH, 0.1 ml. of each saponin solution containing 500 μg of saponin, and 0.3 ml. of a 5% alubumin solution in KRB, and having a pH value adjusted to 7.4. They were heated at 37° C. for two hours, and the amount of the resulting free fatty acid was determined in accordance with the Dole's method [V. P. Dole, J. Biol. Chem., 35, 150 (1958)].
Namely, 3 ml. of Dole's extract were separated into the reaction system, and 1 ml. of a thymol blue solution was added thereinto. Nitrogen was blown into the resulting solution, and the solution was titrated with a 0.008 N aqueous solution of sodium hydroxide, while it was being stirred. The amount of the resulting free fatty acid was determined in accordance with a calibration curve.
The rate of inhibition against fat decomposition was obtained in accordance with the following equation: [formula] wherein A stands for the amount of the free fatty acid formed by addition of ACTH along in the amount of 1 μg/ml.; and B stands for the amount of the free fatty acid formed by addition of ACTH and saponin in the amount of 1 μg/ml. and 20 μg/ml., respectively.

Regarding “20S-Protopanaxadiol-3-O-{[β-D-glucopyranosyl (1→2)-α-L-rhamnopyranosyl (1→6)]-β-D-glucopyranoside}-20-O-[α-L-rhamnopyranosyl (1→6)-β-D-glucopyranoside] [gynosaponin B]”, in the assay with fat cells [1], the “Power for synthesis of neutral fat from glucose” value (“Power for synthesis” for short) is 12,308 cpm/g and the Rate of promotion is reported as 57%. In the assay on fat cells [2], the “Free fatty acid formed by decomposition of fat” value (from here on “Free fatty acid formed”) turned out to be 9.1 μ Eq/g and the Rate of inhibition was 35%. Also, in the assay with fat cells [3], the “Free fatty acid formed” value came out at 6.9 μ Eq/g and the Rate of inhibition stood at 18%.
Regarding `CC(C)=CCC[C@](C)(O[C@@H]1O[C@H](CO[C@@H]2O[C@@H](C)[C@H](O)[C@@H](O)[C@H]2O)[C@@H](O)[C@H](O)[C@H]1O)[C@H]1CC[C@]2(C)[C@@H]1[C@H](O)C[C@@H]1[C@@]3(C)CC[C@H](O[C@@H]4O[C@H](CO)[C@@H](O)[C@H](O)[C@H]4O[C@@H]4O[C@H](CO)[C@@H](O)[C@H](O)[C@H]4O)C(C)(C)[C@@H]3CC[C@]12C` [gynosaponin E, 20S-Protopanaxadiol-3-O-[β-D-glucopyranosyl (1→2)-β-D-glucopyranoside]-20-O-[α-L-rhamnopyranosyl (1→6)-β-D-glucopyranoside]], in the assay with fat cells [1], the “Power for synthesis” value was 10,248 cpm/g and the activation at 20 µg/mL worked out at 48%. In addition, in the assay with fat cells [2], the inhibition at 20 µg/mL was 33% and the “Free fatty acid formed” value is 9.4 μ Eq/g. Moreover, in the assay on fat cells [3], the “Free fatty acid formed” value is 5.9 μ Eq/g and the inhibition at 20 µg/mL is 30%.
Regarding `CC(C)=CCC[C@](C)(O[C@@H]1O[C@H](CO[C@@H]2O[C@@H](C)[C@H](O)[C@@H](O)[C@H]2O)[C@@H](O)[C@H](O)[C@H]1O)[C@H]1CC[C@]2(C)[C@@H]1[C@H](O)C[C@@H]1[C@@]3(C)CC[C@H](O[C@@H]4O[C@H](CO)[C@@H](O)[C@H](O)[C@H]4O)C(C)(C)[C@@H]3CC[C@]12C` [gynosaponin J, 20S-Protopanaxadiol-3-O-β-D-glucopyranoside-20-O-[α-L-rhamnopyranosyl (1→6)-β-D-glucopyranoside]], in the assay on fat cells [1], the “Power for synthesis” value is 11,650 cpm/g and the activation at 20 µg/mL stood at 54%. For the same molecule, in the assay on fat cells [2], the inhibition at 20 µg/mL was found to be 7% and the “Free fatty acid formed” value is 13.1 μ Eq/g. Moreover, in the assay with fat cells [3], the “Free fatty acid formed” value is 5.3 μ Eq/g and the inhibition at 20 µg/mL stood at 37%.
Turning to “20S,26-Hydroxyprotopanaxadiol-3-O-{[β-D-glucopyranosyl (1→2)-α-L-rhamnopyranosyl (1→6)]-β-D-glucopyranoside}-20-O-[α-L-rhamnopyranosyl (1→6)-β-D-glucopyranoside] [gynosaponin O]”, in the assay with fat cells [1], the “Power for synthesis” value was 8,263 cpm/g and the Rate of promotion is on record as 38%. Further, in the assay with fat cells [2], the “Free fatty acid formed” value turned out to be 13.9 μ Eq/g and the Rate of inhibition is 1%. In addition, in the assay on fat cells [3], the “Free fatty acid formed” value is given as 5.6 μ Eq/g and the Rate of inhibition came to 33%.
With `CC(C)=CCC[C@](C)(O[C@@H]1O[C@H](CO)[C@@H](O)[C@H](O)[C@H]1O)[C@H]1CC[C@]2(C)[C@@H]1[C@H](O)C[C@@H]1[C@@]3(C)CC[C@H](O[C@@H]4O[C@H](CO[C@@H]5O[C@@H](C)[C@H](O)[C@@H](O)[C@H]5O)[C@@H](O)[C@H](O)[C@H]4O)C(C)(C)[C@@H]3CC[C@]12C` [gynosaponin K, 20S-Protopanaxadiol-3-O-[α-L-rhamnopyranosyl (1→6)-β-D-glucopyranoside]-20-O-β-D-glucopyranoside], in the assay with fat cells [1], the “Power for synthesis” value is given as 13,600 cpm/g and the activation at 20 µg/mL is 63%. Further, in the assay on fat cells [2], the inhibition at 20 µg/mL was found to be 2% and the “Free fatty acid formed” value is on record as 13.8 μ Eq/g. Moreover, in the assay with fat cells [3], the “Free fatty acid formed” value is reported as 6.1 μ Eq/g and the inhibition at 20 µg/mL amounted to 27%.
